How the values were obtained:
[1] = system: CCRF-CEM; experiment: NCI 60 panel growth inhibition (SRB), leukemia; type: cell-based, human
Summary of the method: (§1)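 Two-stage NCI process: single-dose screen, then five-concentration testing of selected compounds. Growth relative to time-zero and untreated controls was derived from SRB absorbance, and TGI from the concentration giving Ti = Tz.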

[2] = system: HL-60(TB); experiment: NCI 60 panel growth inhibition (SRB), leukemia; type: cell-based, human
Summary of the method: as §1

[3] = system: K-562; experiment: NCI 60 panel growth inhibition (SRB), leukemia; type: cell-based, human
Summary of the method: as §1

[4] = system: MOLT-4; experiment: NCI 60 panel growth inhibition (SRB), leukemia; type: cell-based, human
Summary of the method: as §1

[5] = system: RPMI-8226; experiment: NCI 60 panel growth inhibition (SRB), leukemia; type: cell-based, human
Summary of the method: as §1

[6] = system: SR; experiment: NCI 60 panel growth inhibition (SRB), leukemia; type: cell-based, human
Summary of the method: as §1

[7] = system: HT29; experiment: NCI 60 panel growth inhibition (SRB), colon cancer; type: cell-based, human
Summary of the method: as §1

[8] = system: SF-268; experiment: NCI 60 panel growth inhibition (SRB), CNS cancer; type: cell-based, human
Summary of the method: as §1

[9] = system: SF-295; experiment: NCI 60 panel growth inhibition (SRB), CNS cancer; type: cell-based, human
Summary of the method: as §1

[10] = system: SF-539; experiment: NCI 60 panel growth inhibition (SRB), CNS cancer; type: cell-based, human
Summary of the method: as §1

[11] = system: SNB-19; experiment: NCI 60 panel growth inhibition (SRB), CNS cancer; type: cell-based, human
Summary of the method: as §1

[12] = system: SNB-75; experiment: NCI 60 panel growth inhibition (SRB), CNS cancer; type: cell-based, human; settings: SNB-75, 10 μM
Summary of the method: as §1

[13] = system: U251; experiment: NCI 60 panel growth inhibition (SRB), CNS cancer; type: cell-based, human
Summary of the method: as §1

[14] = system: SK-MEL-2; experiment: NCI 60 panel growth inhibition (SRB), melanoma; type: cell-based, human
Summary of the method: as §1

[15] = system: IGROV1; experiment: NCI 60 panel growth inhibition (SRB), ovarian cancer; type: cell-based, human
Summary of the method: as §1

[16] = system: NCI/ADR-RES; experiment: as above; type: cell-based, human
Summary of the method: as §1

[17] = system: OVCAR-3; experiment: as above; type: cell-based, human
Summary of the method: as §1

[18] = system: OVCAR-4; experiment: as above; type: cell-based, human
Summary of the method: as §1

[19] = system: OVCAR-5; experiment: as above; type: cell-based, human
Summary of the method: as §1

[20] = system: OVCAR-8; experiment: as above; type: cell-based, human
Summary of the method: as §1

[21] = system: SK-OV-3; experiment: as above; type: cell-based, human; settings: Homo sapiens; SK-OV-3, five dose
Summary of the method: as §1

[22] = system: 786-0; experiment: NCI 60 panel growth inhibition (SRB), renal cancer; type: cell-based, human
Summary of the method: as §1

[23] = system: A498; experiment: NCI 60 panel growth inhibition (SRB), renal cancer; type: cell-based, human
Summary of the method: as §1

[24] = system: ACHN; experiment: NCI 60 panel growth inhibition (SRB), renal cancer; type: cell-based, human
Summary of the method: as §1

[25] = system: CAKI-1; experiment: NCI 60 panel growth inhibition (SRB), renal cancer; type: cell-based, human
Summary of the method: as §1

[26] = system: SN12C; experiment: NCI 60 panel growth inhibition (SRB), renal cancer; type: cell-based, human
Summary of the method: as §1

[27] = system: NCI 60 cancer cell line panel; experiment: NCI 60 panel growth inhibition (SRB), whole panel; type: cell-based, human
Summary of the method: as §1

[28] = biological target: T1, CDK2 (Homo sapiens, UniProt P24941); experiment: CDK2 kinase assay (BPS kit, Kinase-Glo Max); type: biochemical
T1 construct: purchased BPS Biosciences 79599

In the case of COc1ccc2c(c1)C(=NNC(=O)COc1cc(-c3nc4ccccc4s3)ccc1OC)C(=O)N2 [Compound 9o, 2-(5-(Benzo[d]thiazol-2-yl)-2-methoxyphenoxy)-N′-(5-methoxy-2-oxoindolin-3-ylidene)acetohydrazide], the GI% ([1]; 10 μM) is reported as 57.64%, the GI50 ([1]; Homo sapiens, five dose) is reported as 6.08 µM and the GI% ([2]; HL-60(TB), 10 μM) is reported as 7.99%. For the same compound, the GI50 ([2]; Homo sapiens, HL-60 (TB), five dose) was greater than 100 µM, the GI50 ([3]; Homo sapiens, K562, K-562, five dose) was 3.75 µM and the GI% ([3]; K-562, 10 μM) was 64.36%. It also gave a GI50 ([4]; Homo sapiens, MOLT-4, five dose) of 5.05 µM, a GI% ([4]; MOLT-4, 10 μM) of 36.32% and a GI50 ([5]; Homo sapiens, RPMI-8226, five dose) of 61.4 µM. It also gave a GI% ([5]; RPMI-8226, 10 μM) of 66.93%, a GI% ([6]; 10 μM) of 35.47% and a GI50 ([6]; Homo sapiens, five dose) of 20.9 µM. For the same compound, the GI% ([7]; HT29, 10 μM) was 20.32%, the GI50 ([7]; Homo sapiens, HT-29, HT29, five dose) was 26.8 µM and the GI50 ([8]; Homo sapiens, SF-268, five dose) was greater than 100 µM. The GI% ([8]; SF-268, 10 μM) was 51.91%, the GI50 ([9]; Homo sapiens, SF-295, five dose) was 11.8 µM and the GI% ([9]; SF-295, 10 μM) was 31.59%. It also gave a GI50 ([10]; Homo sapiens, SF-539, five dose) of 39.9 µM, a GI% ([10]; SF-539, 10 μM) of 12.44% and a GI50 ([11]; Homo sapiens, SNB-19, five dose) of 5.72 µM. The GI% ([11]; SNB-19, 10 μM) was 49.50%, the GI% [12] was “– (GI% < 5%)” and the GI50 ([13]; Homo sapiens, U-251, U251, five dose) was 2.02 µM. For the same compound, the GI% ([13]; U251, 10 μM) was 143.46%, the GI50 ([14]; Homo sapiens, SK-MEL-2, five dose) was greater than 100 µM and the GI% ([14]; SK-MEL-2, 10 μM) was 26.06%. It also gave a GI50 ([15]; Homo sapiens, IGROV-1, IGROV1, five dose) of 2.22 µM, a GI% ([15]; IGROV1, 10 μM) of 18.68% and a GI% ([16]; 10 μM) of 130.36%. For the same compound, the GI50 ([16]; Homo sapiens, five dose) was 18.5 µM, the GI50 ([17]; Homo sapiens, OVCAR-3, five dose) was 2.49 µM and the GI% ([17]; OVCAR-3, 10 μM) was 94.12%. For the same compound, the GI50 ([18]; Homo sapiens, OVCAR-4, five dose) was greater than 100 µM, the GI% ([18]; OVCAR-4, 10 μM) was 68.35% and the GI50 ([19]; Homo sapiens, OVCAR-5, five dose) was greater than 100 µM. The GI% ([19]; OVCAR-5, 10 μM) was 9.28%, the GI50 ([20]; Homo sapiens, OVCAR-8, five dose) was 4.02 µM and the GI% ([20]; OVCAR-8, 10 μM) was 93.38%. The GI50 [21] was 48.9 µM, the GI% ([22]; 786-0, 10 μM) was 75.63% and the GI50 ([22]; Homo sapiens, 786-0, five dose) was 16.1 µM. For the same compound, the GI% ([23]; A498, 10 μM) was “– (GI% < 5%)”, the GI50 ([23]; Homo sapiens, A498, five dose) was greater than 100 µM and the GI% ([24]; 10 μM) was 96.99%. The GI50 ([24]; Homo sapiens, five dose) was 6.7 µM, the GI% ([25]; CAKI-1, 10 μM) was 72.22% and the GI50 ([25]; Homo sapiens, CAKI-1, five dose) was 56.2 µM. For the same compound, the GI% ([26]; 10 μM) was 24.01%, the GI50 ([26]; Homo sapiens, five dose) was 25.6 µM and the GI50 ([27]; Homo sapiens, five dose, NCI cancer cell lines, read-out: GI50 reached (most sensitive NCI cell line)) was 2.02 µM. For the same compound, the “Mean GI%” value ([27]; mean over NCI 60 panel, 10 μM) was 55.91%, the kinase selectivity ([28]; from IC50 of Tables 4 and 5) was “higher selectivity toward CDK2 and CDK5 over CDK1, VEGFR-2 and FGFR-1” and the IC50 ([28]; mean of two independent experiments ± SD) was 0.21 ± 0.015 µM. The melting point was 199 to 201 °C.

From article PMC11396129, “Oxindole–benzothiazole hybrids as CDK2 inhibitors and anticancer agents: design, synthesis and biological evaluation” (BMC Chemistry, 2024)
